Some results are limits rather than exact numbers.

Data on 59 compounds can be found in ChEMBL document CHEMBL5729293, “Inhibitors of KEAP1-Nrf2 protein-protein interaction” (2022).

The test can be described thus: Fluorescence Based Assay: The details of the KEAP1 KELCH ThermoFluor® Assay Construct are as follows: Kelch domain of human KEAP 1 (321-624 aa) was used in the assay. The protein was expressed in E. coli with 6His tag that was cleaved prior to receipt for use.ThermoFluor® experiments were carried out using instruments owned by Janssen Research and Discovery, L.L.C. through its acquisition of 3-Dimensional Pharmaceuticals, Inc. 1,8-ANS (Invitrogen) was used as a fluorescent dye. Protein (KEAP Kelch) and compound solutions were dispensed into black 384-well polypropylene PCR microplates (Abgene) and overlayed with silicone oil (1 μL, Fluka, type DC 200) to prevent evaporation.Reference wells contained KEAP Kelch without compounds, and the assay conditions were as follows: 1.1 μM (0.037mg/mL) KEAP Kelch, 80 μM 1,8-ANS, 25 mM PIPES, pH 7.0, 100 mM NaCl, 0.002% Tween-20.
In turn, `CC[C@@H]1CN(Cc2nc([C@@H](CC(=O)O)c3ccc4c(nnn4C4CC4)c3C)ccc2C)S(=O)(=O)c2cccnc2O1` returned a dissociation constant Kd of less than 1 nM.

As for `Cc1ccc([C@@H](c2ccn3c(C(F)(F)F)nnc3c2C)C(C)(C)C(=O)O)cc1CN1C[C@@H]2CCCCN2c2ncc(C#N)cc2S1(=O)=O`, the Kd was less than 1 nM. Then `CCn1nnc2c(C)c([C@@H](CC(=O)O)c3ccc(C)c(CN4C[C@H]5CCCN5c5ccccc5S4(=O)=O)c3)ccc21`, with less than 1 nM; and `Cc1ccc([C@@H](c2ccn3c(C(F)(F)F)nnc3c2C)C(C)(C)C(=O)O)cc1CN1CC2(CCOCC2)Oc2nc(OC(C)CN3CCCCC3)c(C)cc2S1(=O)=O` (some centres undefined), with less than 1 nM; and `Cc1cnc2c(c1)S(=O)(=O)N(Cc1cc(C(c3ccc4c(nnn4C4CC4)c3C)C(C)(C)C(=O)O)cnc1C)CC1(CCOCC1)O2` (centres undefined), with less than 1 nM. As for `Cc1ccc(C(CC(=O)O)c2ccn3c(C(F)F)nnc3c2C)cc1CN1C[C@H]2CCCN2c2ncccc2S1(=O)=O` (some centres undefined), the figure is less than 1 nM; as for `Cc1ccc(C(CC(=O)O)c2ccn3c(C(F)(F)F)nnc3c2C)nc1CN1C[C@@H]2CCCCN2c2ncccc2S1(=O)=O` (some centres undefined), less than 1 nM; as for `CCn1nnc2c(C)c([C@H](c3ccc(C)c(CN4CC5(CCOCC5)Oc5ncc(C)cc5S4(=O)=O)n3)C(C)(C)C(=O)O)ccc21`, less than 1 nM. Then `Cc1ccc([C@H](CC(=O)O)c2ccn3c(C(F)(F)F)nnc3c2C)cc1CN1CC2(CC2)Oc2nc(NCCCO)ccc2S1(=O)=O`, with less than 1 nM; and `Cc1cnc2c(c1)S(=O)(=O)N(Cc1nc([C@@H](c3ccn4c(C(F)F)nnc4c3C)C(C)(C)C(=O)O)ccc1C)CC1(COC1)O2`, with less than 1 nM; and `Cc1ccc(C(CC(=O)O)c2ccn3c(C(F)(F)F)nnc3c2C)cc1CN1C[C@H]2CCCN2c2ccccc2S1(=O)=O` (some centres undefined), with less than 1 nM. Take `Cc1cnc2c(c1)S(=O)(=O)N(Cc1cc([C@H](CC(=O)O)c3ccn4c(C(F)F)nnc4c3C)ccc1C)CC1(CC1)O2`: the Kd is less than 1 nM. In the case of `Cc1ccc(C(CC(=O)O)c2cc(OC(F)F)c3c(c2)nnn3C)cc1CN1C[C@H]2CCCN2c2ncccc2S1(=O)=O` (some centres undefined), the Kd is less than 1 nM. Consider `Cc1ccc([C@@H](c2ccn3c(C(F)(F)F)nnc3c2C)C(C)(C)C(=O)O)cc1CN1CC2(CC2)Oc2nc(OCCN3CCOCC3)c(C)cc2S1(=O)=O`, for which the Kd is less than 1 nM. For `Cc1ccc(C(CC(=O)O)c2ccn3c(C(F)F)nnc3c2C)cc1CN1C[C@]2(C)CCCN2c2ncccc2S1(=O)=O` (some centres undefined), the Kd is less than 1 nM. As for `Cc1ccc([C@H](CC(=O)O)c2ccn3c(C(F)(F)F)nnc3c2C)cc1CN1CC2(CCOCC2)Oc2ncccc2S1(=O)=O`, the figure is less than 1 nM. Then `Cc1ccc([C@H](CC(=O)O)c2ccc3c(nnn3C3CC3)c2C)cc1CN1C[C@@H]2CCCCN2c2ncccc2S1(=O)=O`, with less than 1 nM; and `Cc1ccc(C(CC(=O)O)c2ccc3c(nnn3CC3CC3)c2C)cc1CN1C[C@H]2CCCCN2c2ncccc2S1(=O)=O` (some centres undefined), with less than 1 nM; and `Cc1ccc([C@@H](c2ccn3c(C(F)(F)F)nnc3c2C)C(C)(C)C(=O)O)cc1CN1CC2(CCOCC2)Oc2nc(OCCN3CCCCC3)c(C)cc2S1(=O)=O`, with less than 1 nM. The compound `Cc1ccc([C@@H](c2ccn3c(C(F)(F)F)nnc3c2C)C(C)(C)C(=O)O)cc1CN1CC2(CCOCC2)Oc2nc(OCCN3CCOCC3)ccc2S1(=O)=O` came in with a Kd of less than 1 nM. As for `Cc1cnc2c(c1)S(=O)(=O)N(Cc1cc([C@@H](c3ccn4c(C(F)(F)F)nnc4c3C)C(C)(C)C(=O)O)ccc1C)CC1(CC1)O2`, the figure is less than 1 nM. As for `Cc1ccc([C@@H](c2ccn3c(C(F)(F)F)nnc3c2C)C(C)(C)C(=O)O)cc1CN1CC2(CC2)Oc2nc(OCCN3CCCCC3)ccc2S1(=O)=O`, the figure is less than 1 nM.

In turn, `Cc1ccc([C@H](CC(=O)O)c2ccn3c(C(F)(F)F)nnc3c2C)nc1CN1C[C@@H]2CCCCN2c2ncc(C#N)cc2S1(=O)=O` returned a Kd of less than 1 nM.

As to `Cc1ccc([C@@H](c2ccn3c(C(F)(F)F)nnc3c2C)C(C)(C)C(=O)O)cc1CN1CC2(CCOCC2)Oc2nc(CCC(=O)NC3CCC3)ccc2S1(=O)=O`, the Kd was less than 1 nM. As for `Cc1ccc([C@H](CC(=O)O)c2ccn3c(C(F)(F)F)nnc3c2C)cc1CN1C[C@H]2CCCN2c2ncccc2S1(=O)=O`, the figure is less than 1 nM; as for `Cc1ccc([C@H](CC(=O)O)c2ccn3c(C(F)(F)F)nnc3c2C)cc1CN1C[C@H]2CCCCN2c2ncc(C#N)cc2S1(=O)=O`, less than 1 nM; as for `Cc1ccc([C@H](c2ccn3c(C(F)(F)F)nnc3c2C)C(C)(C)C(=O)O)cc1CN1CC2(CCOCC2)Oc2nc(NCCN3CCOCC3)c(C)cc2S1(=O)=O`, less than 1 nM. Then `Cc1cnc2c(c1)S(=O)(=O)N(Cc1nc(C(CC(=O)O)c3ccn4c(C(F)(F)F)nnc4c3C)ccc1C)C[C@@H]1CCCCN21` (some centres undefined), with less than 1 nM.

Compound `Cc1ccc([C@@H](c2ccn3c(C(F)F)nnc3c2C)C(C)(C)C(=O)O)cc1CN1CC2(CCOCC2)Oc2nc(OCCN3CCCCC3)c(C)cc2S1(=O)=O` yielded a Kd of less than 1 nM. As for `Cc1ncc([C@H](c2ccc3c(nnn3C3CC3)c2C)C(C)(C)C(=O)O)cc1CN1CC2(CCOCC2)Oc2ncccc2S1(=O)=O`, the figure is less than 1 nM; as for `Cc1ccc([C@H](CC(=O)O)c2ccn3c(C(F)(F)F)nnc3c2C)cc1CN1CC2(CC2)Oc2nc(NCCN3CCCCC3)ccc2S1(=O)=O`, less than 1 nM. As for `Cc1ccc([C@@H](c2ccn3c(C(F)(F)F)nnc3c2C)C(C)(C)C(=O)O)cc1CN1C[C@@]2(CCOC2)Oc2ncccc2S1(=O)=O`, the figure is less than 1 nM; as for `Cc1ccc([C@H](c2ccn3c(C(F)(F)F)nnc3c2C)C(C)(C)C(=O)O)cc1CN1CC2(CCOCC2)Oc2nc(N[C@H](C)CN3CCOCC3)c(C)cc2S1(=O)=O`, less than 1 nM.

Compound `Cc1ccc([C@@H](c2ccn3c(C(F)F)nnc3c2C)C(C)(C)C(=O)O)cc1CN1CC2(CC2)Oc2nc(OCCN3CCCC3)c(C)cc2S1(=O)=O` gave a Kd of less than 1 nM. Then `Cc1ccc([C@@H](c2ccn3c(C(F)(F)F)nnc3c2C)C(C)(C)C(=O)O)cc1CN1CC2(CC2)Oc2nc(OCCN3CCC(F)CC3)c(C)cc2S1(=O)=O`, with less than 1 nM; and `CC[C@@H]1CN(Cc2cc([C@H](CC(=O)O)c3cc(OC(F)F)c4c(c3)nnn4C)ccc2C)S(=O)(=O)c2cccnc2O1`, with less than 1 nM. As for `Cc1cnc([C@@H](c2ccn3c(C(F)F)nnc3c2C)C(C)(C)C(=O)O)cc1CN1CC2(CC2)Oc2nc(OCCN3CCCC3)c(C)cc2S1(=O)=O`, the figure is less than 1 nM; as for `Cc1ccc([C@H](CC(=O)O)c2ccc3c(nnn3C3CC3)c2C)cc1CN1C[C@H]2CCCCN2c2ncccc2S1(=O)=O`, less than 1 nM; as for `Cc1ccc([C@@H](CC(=O)O)c2ccn3c(C(F)(F)F)nnc3c2C)cc1CN1C[C@@H]2CCCCN2c2ncccc2S1(=O)=O`, less than 1 nM. As for `Cc1ccc([C@@H](CC(=O)O)c2ccn3c(C(F)(F)F)nnc3c2C)nc1CN1CC2(COC2)Oc2ncccc2S1(=O)=O`, the figure is less than 1 nM. For `CCn1nnc2c(C)c(C(CC(=O)O)c3ccc(C)c(CN4CC5(CCOCC5)Oc5ccc(F)cc5S4(=O)=O)n3)ccc21` (centres undefined), the Kd was less than 1 nM. As for `CC[C@@H]1CN(Cc2cc(C(CC(=O)O)c3ccn4c(C(F)(F)F)nnc4c3)ccc2C)S(=O)(=O)c2cccnc2O1` (some centres undefined), the figure is less than 1 nM; as for `Cc1cnc2c(c1)S(=O)(=O)N(Cc1cc([C@@H](c3ccn4c(C(F)(F)F)nnc4c3C)C(C)(C)C(=O)O)ccc1C)C[C@]1(CCOC1)O2`, less than 1 nM; as for `Cc1ccc([C@@H](CC(=O)O)c2ccn3c(C(F)(F)F)nnc3c2C)cc1CN1C[C@H]2CCC(F)(F)CN2c2ncccc2S1(=O)=O`, less than 1 nM. As for `Cc1ccc([C@@H](c2ccn3c(C(F)(F)F)nnc3c2C)C(C)(C)C(=O)O)cc1CN1CC2(CC2)Oc2nc(OCCN3CCCCC3)c(C)cc2S1(=O)=O`, the figure is less than 1 nM; as for `Cc1cnc2c(c1)S(=O)(=O)N(Cc1cc([C@H](CC(=O)O)c3ccn4c(C(F)(F)F)nnc4c3C)ccc1C)CC1(CCOCC1)O2`, less than 1 nM; as for `Cc1cnc2c(c1)S(=O)(=O)N(Cc1cc([C@@H](c3ccn4c(C(F)F)nnc4c3C)C(C)(C)C(=O)O)ccc1C)CC1(CCOCC1)O2`, less than 1 nM. As for `CCn1nnc2c(C)c([C@H](CC(=O)O)c3ccc(C)c(CN4C[C@H]5CCCN5c5ncccc5S4(=O)=O)n3)ccc21`, the figure is less than 1 nM; as for `Cc1ccc([C@H](c2ccn3c(C(F)(F)F)nnc3c2C)C(C)(C)C(=O)O)cc1CN1CC2(CCOCC2)Oc2nc(OCCN3CCC(F)(F)CC3)ccc2S1(=O)=O`, less than 1 nM; as for `Cc1cnc2c(c1)S(=O)(=O)N(Cc1cc(C(c3ccn4c(C(F)(F)F)nnc4c3C)C(C)(C)C(=O)O)cnc1C)CC1(CCOCC1)O2` (centres undefined), less than 1 nM. Consider `CCn1nnc2c(C)c(C(CC(=O)O)c3ccc(C)c(CN4CC5(COC5)Oc5ncccc5S4(=O)=O)c3)ccc21` (centres undefined), for which the Kd was less than 1 nM. As for `Cc1ccc([C@@H](c2ccn3c(C(F)F)nnc3c2C)C(C)(C)C(=O)O)nc1CN1CC2(COC2)Oc2ncccc2S1(=O)=O`, the figure is less than 1 nM; as for `Cc1cnc2c(c1)S(=O)(=O)N(Cc1cc([C@@H](c3ccn4c(C(F)(F)F)nnc4c3C)C(C)(C)C(=O)O)ncc1C)CC1(CCOCC1)O2`, less than 1 nM. Then `Cc1ccc(C(c2ccn3c(C(F)(F)F)nnc3c2C)C(C)(C)C(=O)O)cc1CN1CC2(CCOCC2)Oc2nc(OCCN3CCOCC3)ccc2S1(=O)=O` (centres undefined), with less than 1 nM. As for `Cc1cnc2c(c1)S(=O)(=O)N(Cc1nc([C@@H](c3ccn4c(C(F)F)nnc4c3C)C(C)(C)C(=O)O)ccc1C)CC1(CC1)O2`, the figure is less than 1 nM; as for `Cc1cnc([C@@H](c2ccn3c(C(F)(F)F)nnc3c2C)C(C)(C)C(=O)O)cc1CN1CC2(CCOCC2)Oc2ncccc2S1(=O)=O`, less than 1 nM.

With `Cc1ccc([C@@H](CC(=O)O)c2ccn3c(C(F)(F)F)nnc3c2C)nc1CN1C[C@@H]2CCCCN2c2ncc(C#N)cc2S1(=O)=O`, the Kd was less than 1 nM. As for `Cc1ccc(C(CC(=O)O)c2ccn3c(C(F)(F)F)nnc3c2C)nc1CN1CC2(CC2)Oc2ncccc2S1(=O)=O` (centres undefined), the figure is less than 1 nM; as for `Cc1cnc2c(c1)S(=O)(=O)N(Cc1cc([C@H](c3ccc4c(nnn4C4CC4)c3C)C(C)(C)C(=O)O)ccc1C)CC1(CNC1)O2`, less than 1 nM.
